Laboratory results published in ChEMBL document CHEMBL3045451, “Isolation and characterization of fungal inhibitors from Epichloë festucae” (2000).

How the values were obtained:
Cryphonectria parasitica [1] = assay: Fungicidal activity against Cryphonectria parasitica assessed as inhibition of fungal growth at 50 ug after 7 days; assay type: functional; conditions: 168 h, read-out: DIZ
Cryphonectria parasitica [2] = assay: Fungicidal activity against Cryphonectria parasitica assessed as inhibition of fungal growth at 25 ug after 7 days; assay type: functional; conditions: 168 h, read-out: DIZ
Cryphonectria parasitica [3] = assay: Fungicidal activity against Cryphonectria parasitica assessed as inhibition of fungal growth at 12.5 ug after 7 days; assay type: functional; conditions: 168 h, read-out: DIZ
Cryphonectria parasitica [4] = assay: Fungicidal activity against Cryphonectria parasitica assessed as inhibition of fungal growth at 100 ug after 7 days; assay type: functional; conditions: 168 h, read-out: DIZ
Laetisaria fuciformis = assay: Fungicidal activity against Laetisaria fuciformis assessed as inhibition of fungal growth at 10 to 1000 mg/L; assay type: functional, organism-based
Rhizoctonia solani = assay: Fungicidal activity against Rhizoctonia solani assessed as inhibition of fungal growth at 10 to 1000 mg/L; assay type: functional, organism-based
Magnaporthiopsis poae = assay: Fungicidal activity against Magnaporthe poae assessed as inhibition of fungal growth at 10 to 1000 mg/L; assay type: functional, organism-based

## COC(=O)c1c[nH]c2ccccc12
Cryphonectria parasitica [1]
  zone of inhibition at 50 µg/disc: 8 mm
Cryphonectria parasitica [2]
  zone of inhibition at 25 µg/disc: 6 mm
Cryphonectria parasitica [3]
  zone of inhibition at 12.5 µg/disc: 4 mm
Cryphonectria parasitica [4]
  zone of inhibition at 100 µg/disc: 11 mm

## O=Cc1c[nH]c2ccccc12 [3-FORMYLINDOLE]
Cryphonectria parasitica [1]
  zone of inhibition at 50 µg/disc: 13 mm
Cryphonectria parasitica [2]
  zone of inhibition at 25 µg/disc: 10 mm
Cryphonectria parasitica [3]
  zone of inhibition at 12.5 µg/disc: 7 mm
Cryphonectria parasitica [4]
  zone of inhibition at 100 µg/disc: 15 mm

## CC(C)=CCC[C@@](C)(O)[C@H]1CC[C@](C)(O)[C@@H]1C [CYCLONERODIOL]
Cryphonectria parasitica [1]
  zone of inhibition at 50 µg/disc: 0 mm
Cryphonectria parasitica [2]
  zone of inhibition at 25 µg/disc: 0 mm
Cryphonectria parasitica [3]
  zone of inhibition at 12.5 µg/disc: 0 mm
Cryphonectria parasitica [4]
  zone of inhibition at 100 µg/disc: 13 mm

## CC(=O)NC(C)=O [DIACETAMIDE]
Cryphonectria parasitica [1]
  zone of inhibition at 50 µg/disc: 10 mm
Cryphonectria parasitica [2]
  zone of inhibition at 25 µg/disc: 7 mm
Cryphonectria parasitica [3]
  zone of inhibition at 12.5 µg/disc: 3 mm
Cryphonectria parasitica [4]
  zone of inhibition at 100 µg/disc: 14 mm

## O=C(O)Cc1c[nH]c2ccccc12 [INDOLE-3-ACETIC ACID]
Laetisaria fuciformis
  growth inhibition (GI): Dose-dependent effect
Cryphonectria parasitica [1]
  zone of inhibition at 50 µg/disc: 16 mm
Rhizoctonia solani
  growth inhibition (GI): Dose-dependent effect
Cryphonectria parasitica [2]
  zone of inhibition at 25 µg/disc: 14 mm
Cryphonectria parasitica [3]
  zone of inhibition at 12.5 µg/disc: 12 mm
Magnaporthiopsis poae
  growth inhibition (GI): Dose-dependent effect
Cryphonectria parasitica [4]
  zone of inhibition at 100 µg/disc: 21 mm

## OCCc1c[nH]c2ccccc12 [TRYPTOPHOL]
Laetisaria fuciformis
  growth inhibition (GI): Dose-dependent effect
Cryphonectria parasitica [1]
  zone of inhibition at 50 µg/disc: 11 mm
Rhizoctonia solani
  growth inhibition (GI): Dose-dependent effect
Cryphonectria parasitica [2]
  zone of inhibition at 25 µg/disc: 9 mm
Cryphonectria parasitica [3]
  zone of inhibition at 12.5 µg/disc: 7 mm
Magnaporthiopsis poae
  growth inhibition (GI): Dose-dependent effect
Cryphonectria parasitica [4]
  zone of inhibition at 100 µg/disc: 14 mm
